US11628133B2, “Uses of the peptide of sequence His-D-Trp-Ala-Trp-d-Phe-Lys-NH2 for reducing or delaying the appearance of cell senescence and signs of skin aging” (ISP INVESTMENTS LLC, priority 2015, dated 2023)
Where no end group is shown, it is not given here. [ ]: non-standard residue; d: D form.

How the values were obtained:
prolidase [1] = experiment: Activity of prolidase in human fibroblasts (Gly-Pro substrate, Chinard's reagent); format: cell-based; conditions: untreated = 100
Method: Protocol: Cultured human fibroblasts were treated with hexapeptide-2 in a concentration of 0.5 and 1 μM after dilution in a culture medium, for 24 hours (2 applications per day). At the same time, fibroblasts were treated with an activator and an inhibitor of prolidase: retinoic acid (Sigma, Ref. R2625) and Cpz-Pro (Bachem, Ref. 4001343). Next, the cells were detached from the dish with the aid of a 150 mM NaCl solution. After having recovered the cellular pellet and activating the prolidase with a solution containing 2 mM MnCl2 for 2 hours at 37° C., the prolidase substrate was added: 47 mM of Glycine-Proline (Sigma, Ref. G3002) for 1 hour at 37° C. Next, the amount of proline contained in each sample was determined at a wavelength of 515 nm using Chinard's reagent. At the same time, a proline concentration range was produced in order to establish a calibration curve. The amount of protein was determined using the BCA protein assay kit (Thermo Scientific, Ref. 23225), which enabled the ratio of proline to the number of proteins in each sample to be recorded.

collagen I [2] = experiment: Expression of intracellular collagen I in human fibroblasts by flow cytometry; format: cell-based; conditions: untreated = 100
Method: Protocol: Cultured human fibroblasts were treated with hexapeptide-2 in a concentration of 0.5 and 1 μM after dilution in a culture medium, for 48 hours (2 applications per day). At the same time, fibroblasts were treated with an activator for collagen I: TGF-β (R&D system, Ref. 240B). The fibroblasts were trypsinated and the cellular pellet was recovered. The cells were then fixed with cold methanol for 15 minutes at 4° C. Immunolabelling was carried out with the aid of a mouse monoclonal antibody specific for collagen I (Millipore, Ref: anti-Collagen Type I, Clone: 5D8-G9) coupled with a fluorochrome. Next, 10 000 cells were analysed by flow cytometry (Guava EasyCyte) in order to determine the amount of fluorescence in each of them.

miRNA-29a 3p [3] = experiment: Expression of miRNA-29a 3p in human fibroblasts from donors of different ages (qPCR); format: cell-based; conditions: overnight, concentration (0.5 or 1 μM) not stated
Method: Protocol: Human fibroblasts from 3 donors were treated with hexapeptide-2 in a concentration of 0.5 and 1 μM in culture medium overnight (1 application).
The miRNAs were extracted with the aid of an extraction kit (Ambion, Ref. AM1561), then reverse transcribed with a specific kit (Applied Biosystem, Ref 4374966). A real time PCR was carried out in a thermocycler using a TaqMan Gene Expression Assay specific for miRNA-29a 3p (Applied Biosystems, Ref 002112) and a TaqMan Gene Expression Assays specific for RNU44 used as the control endogen (Applied Biosystems, Ref. 001094). The relative quantification if the expression of miRNA-29a 3p was carried out by the comparative Ct method.

collagen III = experiment: Expression of collagen III in human skin in ex vivo culture; format: cell-based; conditions: 48 hours, untreated = 100
Method: (§1) Protocol: Samples of human skin were cultured at the air/liquid interface. Hexapeptide-2 was applied topically to the samples in concentrations of 0.5 and 1 μM after dilution in a culture medium, in an amount of 2 applications per day, then the samples were incubated for 48 hours at 37° C.
(§2) These skin samples were subsequently fixed with formaldehyde then included into paraffin. 4 μm sections were then produced.
(§3) Labelling of the collagens I and III was then carried out after demasking specific sites by microwave incubation then by treatment with trypsin. The immunolabelling was carried out with the aid of a rabbit polyclonal antibody specific for collagen I (Rockland, Ref. 600-401-103-0.5), a rabbit polyclonal antibody specific for collagen III (Rockland, Ref 600-401-105-0.5), then an anti-rabbit secondary antibody coupled to a fluorochrome (Invitrogen, Ref. A21206). The cells were then examined under an epifluorescence microscope (Zeiss Axiovert 200M microscope). A quantification of the fluorescence from the photographs obtained was carried out.

collagen I [4] = experiment: Expression of collagen I in human fibroblasts made senescent by transfection with the siRNA FOXO3a; format: cell-based; conditions: 0.5 or 1 μM, 48 hours, siRNA FOXO3a transfected cells
Method: Protocol: Cultured human fibroblasts were treated or not treated with a specific siRNA of FOXO3a (Invitrogen, Ref. HSS177176) in a final concentration of 25 nM using the technique of transfection by Lipofectamine™ RNAiMAX (Invitrogen, Ref. 56531) and treated or not treated with hexapeptide-2 in a concentration of 0.5 or 1 μM in culture medium, for 48 hours (2 applications per day).
The fibroblasts were trypsinated and the cellular pellet was recovered. The cells were then fixed with cold methanol for 15 minutes at 4° C. Immunolabelling was carried out with the aid of a mouse monoclonal antibody specific for collagen I (Millipore, Ref. anti-Collagen Type I, Clone: 5D8-G9) coupled with a fluorochrome. Next, 10 000 cells were analysed using flow cytometry (Guava EasyCyte) in order to determine the level of fluorescence in each of them.

[5] = tested on: human fibroblasts made senescent by replicative senescence; experiment: Activity of β-galactosidase in human fibroblasts made senescent by replicative senescence (long-term treatment); format: cell-based; conditions: 1 μM daily, long-term (about 3 months), general over passes
Method: Protocol: Human fibroblasts were cultured in a specific medium and maintained under culture (for more than 27 passes) and treated or not treated with a daily application of hexapeptide-2 in a concentration of 1 μM in the culture medium, (i.e. 5 applications per week). A portion of the cells was frozen in each pass. Next, key passes were selected: passes 4, 12, 16, 20, 24 and 27. After freezing, the senescent phenotype of the fibroblasts treated or not treated with 1 μM hexapeptide-2 was evaluated by assaying the activity of β-galactosidase.
(§4) To this end, the cells were rinsed and fixed in a fixing buffer (0.2% glutaraldehyde, 2% formaldehyde). The cells were then incubated, at 37° C. without CO2 for 24 hours, with a solution of 1 mg/mL X-Gal in 40 mM of citric acid/phosphate (pH 6), 5 mM K3FeCN6, 5 mM K4FeCN6, 150 mM NaCl and 2 mM MgCl2. The cells were then examined under white light with a microscope (Nikon Eclipse E600 microscope).

[6] = tested on: human fibroblasts made senescent by transfection with the siRNA FOXO3a; experiment: Activity of β-galactosidase in human fibroblasts made senescent by transfection with the siRNA FOXO3a; format: cell-based; conditions: 1 μM, 48 hours, siRNA FOXO3a transfected cells; results not shown
Method: Protocol: Cultured human fibroblasts were treated or not treated with a specific siRNA of FOXO3a (Invitrogen, Ref. HSS177176) in a final concentration of 25 nM using the technique of transfection by Lipofectamine™ RNAiMAX (Invitrogen, Ref 56531) and treated or not treated with hexapeptide-2 in a final concentration of 1 μM in culture medium, for 48 hours (2 applications per day).
as §4, with “The” for “To this end, the”, “incubated” for “incubated,”

prolidase [7] = experiment: Activity of prolidase in human fibroblasts made senescent by replicative senescence (long-term treatment); format: cell-based; conditions: 1 μM daily long-term
Method: Protocol: Human fibroblasts were cultured in a specific medium and maintained under long-term culture treatment (for more than 20 passes, i.e. approximately 3 months), treated or not treated with the aid of a daily application of hexapeptide-2 in a concentration of 1 μM in culture medium, (5 applications per week). A portion of the cells was frozen for each pass. Next, two passes were selected: passes 12 and 20.
To this end, the cells were detached from their support with a solution of 150 mM NaCl. After recovering the cellular pellet and activating the prolidase with a solution containing 2 mM of MnCl2 for 2 hours at 37° C., the substrate for the prolidase was added: 47 mM of Glycine-Proline (Sigma, Ref. G3002), for 1 hour at 37° C. Next, the proline content contained in each sample was determined at a wavelength of 515 nm using Chinard's reagent. At the same time, a concentration range for proline was produced in order to establish a calibration curve. The protein content was determined using the BCA protein assay kit (Thermo Scientific, Ref. 23225), in order to relate the proline content with the number of proteins in each sample.

collagen = conditions: concentrations of 1 μM, 10 μM and 100 μM; cited from earlier work
prolidase [8] = experiment: Expression of prolidase in human fibroblasts (immunofluorescence); format: cell-based; conditions: 24 hours, 2 applications per day, untreated = 100
Method: Protocol: Cultured human fibroblasts were treated with hexapeptide-2 in a final concentration of 0.5 and 1 μM after dilution in a culture medium, for 24 hours (2 applications per day). The cells were then washed, fixed with cold methanol for 4 minutes at 4° C. The cells were incubated in the presence of a mouse monoclonal antibody specific for prolidase (LifeSpan BioSciences, Ref. LS-C115644), then of an anti-mouse secondary antibody coupled to a fluorochrome (Invitrogen, Ref. A21202). The cells were then examined under an epifluorescence microscope (Zeiss Axiovert 200M microscope). Quantification of the fluorescence was carried out from the photographs obtained.

collagen I [9] = experiment: Expression of collagen I in human skin in ex vivo culture; format: cell-based; conditions: 48 hours, untreated = 100
Method: as §1, §2, §3

miRNA-29a 3p [10] = experiment: Expression of miRNA-29a 3p in human fibroblasts made senescent by replicative senescence (long-term treatment); format: cell-based
Method: Protocol: Human fibroblasts were cultured in a specific medium and maintained under a long-term culture treatment (for more than 24 passes, i.e. approximately 3 months), treated or not treated by means of a daily application of hexapeptide-2 in a concentration of 1 μM in culture medium, (5 applications per week). For each pass, a portion of the cells was frozen. Next, three passes were selected: passes 4, 12 and 24.
The miRNAs were extracted with the aid of an extraction kit (Ambion, Ref AMI1561), then reverse transcribed with a specific kit (Applied Biosystems, Ref 4374966). A real-time PCR was carried out in a thermocycler with the aid of a TaqMan Gene Expression Assay specific for miRNA-29a 3p (Applied Biosystems, 002112) and a TaqMan Gene Expression Assay specific for RNU44 used as an endogenic control (Applied Biosystems, 001094). The relative quantification of the expression of miRNA-29a 3p was carried out using the comparative Ct method.

[11] = tested on: senescent human fibroblasts by replicative senescence; experiment: Activity of β-galactosidase in senescent human fibroblasts by replicative senescence (short-term treatment); format: cell-based; conditions: 1 μM, 48 hours, general over passes
Method: Protocol: Human fibroblasts were cultured in a specific medium and maintained under long-term culture treatment (for more than 28 passes, i.e. approximately 3 months). A portion of the cells was frozen in each pass. Next, key passes were selected: passes 4, 12, 16, 20 and 28. After freezing, the fibroblasts were treated with 1 μM hexapeptide-2 in culture medium, for 48 hours (2 applications per day). The senescent phenotype of the fibroblasts treated or not treated with 1 μM hexapeptide-2 was evaluated by assaying the activity of the β-galactosidase.
as §4

## CC1=C(/C=C/C(C)=C/C=C/C(C)=C/C(=O)O)C(C)(C)CCC1 [retinoic acid, reference compound]
Prolidase [1]; 1 μM, 24 hours
  Activity of prolidase (%): 105%

## O=C(O)[C@@H]1CCCN1C(=O)OCc1ccccc1 [Cpz-Pro, reference compound]
Prolidase [1]; 10 mM
  Activity of prolidase (%): 90%

## TGF-β: activator for collagen I (R&D system, Ref. 240B)
Collagen I [2]; 10 ng/ml
  Expression of collagen I (%): 182%

## His-D-Trp-Ala-Trp-D-Phe-Lys-NH2 (H[dW]AW[dF]K-NH2) [hexapeptide-2]
miRNA-29a 3p [3]; fibroblasts of donor one
  reduction in the expression of miRNA-29a 3p: −14%
miRNA-29a 3p [3]; fibroblasts of donor three
  reduction in the expression of miRNA-29a 3p: −27%
miRNA-29a 3p [3]; fibroblasts of donor two
  reduction in the expression of miRNA-29a 3p: −13%
Collagen I [2]; 0.5 μM, 48 hours
  Expression of collagen I (%): 120%
Collagen I [2]; 1 μM, 48 hours
  Expression of collagen I (%): 145%
Collagen III; 0.5 μM topical
  Expression of Collagen III (%): 155%
Collagen III; 1 μM topical
  Expression of Collagen III (%): 155%
Collagen I [4]
  expression of collagen I in senescent cells: smaller reduction in the expression of collagen I
[5]
  reduction in the activity of beta-galactosidase compared with untreated cells: −22%
[6]
  activity of β-galactosidase linked to senescence (number of blue-stained cells): visible reduction in the activity of β-galactosidase
Prolidase [7]; senescent cells (P20)
  restoration in the activity of prolidase compared with untreated control cells in the same pass: 20%
Prolidase [7]; young cells (P12)
  effect on activity of prolidase: little or no effect
collagen
  effect on the secretion of collagen by fibroblasts cultured in vitro: no effect
Prolidase [8]; 0.5 μM
  Expression of prolidase (intensity/area of cells (%)): 118%
Prolidase [8]; 1 μM
  Expression of prolidase (intensity/area of cells (%)): 128%
Collagen I [9]; 0.5 μM topical
  Expression of collagen I (%): 119%
Collagen I [9]; 1 μM topical
  Expression of collagen I (%): 154%
miRNA-29a 3p [10]; pass 4, 1 μM daily long-term
  effect on the expression of miRNA-29a 3p: no effect
miRNA-29a 3p [10]; pass 12, 1 μM daily long-term
  reduction in the expression of miRNA-29a 3p: −16%
miRNA-29a 3p [10]; pass 24, 1 μM daily long-term
  reduction in the expression of miRNA-29a 3p: −7%
[11]
  reduction in the activity of the β-galactosidase compared with untreated cells: −31%
Prolidase [1]; 0.5 μM, 24 hours
  Activity of prolidase (%): 122%
Prolidase [1]; 1 μM, 24 hours
  Activity of prolidase (%): 114%
